Where a name gives a salt, the structure may show the parent alone. Read-outs that look alike come from different tables or passages of the source.
Assays:
CDK2/Cyclin A = CDK2/Cyclin A (Homo sapiens, UniProt P24941); assay: Inhibition of CDK2/Cyclin A Retinoblastoma Kinase Activity; type: biochemical; conditions: for Ki: apparent Ki, CDK2/proteolyzed cyclin A, Rb fragment substrate, 25 μM ATP; for CDK2 % Inhibition At 0.03 μM: Table 2
Outline: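 Radiometric filter-binding readout of phosphate transfer to an Rb substrate fragment by purified CDK2/truncated cyclin A at 10 or 19 nM. Run at pH 7.4 with 25 μM ATP, 30 °C, 60–75 min, linear rates; background without enzyme subtracted, Ki from competitive-inhibition models.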

[1] = target: human CDK4 and genetically truncated (1-264) cyclin D3 (Homo sapiens, UniProt P11802); assay: Inhibition of CDK4/Cyclin D Retinoblastoma Kinase Activity; type: biochemical; conditions: for Ki: apparent Ki, CDK4/truncated cyclin D3, Rb fragment substrate, 25 μM ATP
Outline: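 Apparent Ki values come from competitive or competitive tight-binding inhibition fits of background-corrected 32P/33P incorporation into His-tagged Rb fragment (386-928), captured on nitrocellulose. Reaction: 5 nM insect-cell-expressed human CDK4 with cyclin D3 (1-264), 25 μM ATP, pH 7.4 HEPES, 2% DMSO, 30° C., 20 min, extended to 60 min for tight-binding inhibitors.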

HCT-116 cell line = assay: Inhibition of cell growth, tetrazolium salt (MTT) assay; type: cell-based; conditions: for IC50: Homo sapiens, HCT-116, 120 h, MTT, three to five days, read-out: HCT-116 IC50; for HCT-116 % Inhibition at 0.25 μM: 0.25 μM compound
Outline: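 MTT colorimetric viability: three-to-five-day compound exposure in 0.5% (v/v) DMSO at 37° C, MTT 0.2 mg/mL for the last 4 h, A540 compared with vehicle-treated cells.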

[2] = 0.1 μM compound, HCT-116, Table 3
[3] = 0.1 μM compound, HCT-116, Table 4

Chain of human CDK4 and genetically truncated (1-264) cyclin D3 (P11802 whole entry, the tested form may be a part): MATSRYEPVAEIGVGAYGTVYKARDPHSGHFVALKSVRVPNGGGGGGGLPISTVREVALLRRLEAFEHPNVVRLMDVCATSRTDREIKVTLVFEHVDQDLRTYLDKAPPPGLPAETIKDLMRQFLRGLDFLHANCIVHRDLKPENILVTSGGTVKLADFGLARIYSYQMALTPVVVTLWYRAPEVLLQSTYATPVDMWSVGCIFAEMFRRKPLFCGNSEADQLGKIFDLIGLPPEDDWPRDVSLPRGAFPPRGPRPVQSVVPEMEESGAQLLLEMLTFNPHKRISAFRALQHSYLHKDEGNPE
Chain of human CDK4 and genetically truncated (1-264) cyclin D3 (P30281 1-264 partner): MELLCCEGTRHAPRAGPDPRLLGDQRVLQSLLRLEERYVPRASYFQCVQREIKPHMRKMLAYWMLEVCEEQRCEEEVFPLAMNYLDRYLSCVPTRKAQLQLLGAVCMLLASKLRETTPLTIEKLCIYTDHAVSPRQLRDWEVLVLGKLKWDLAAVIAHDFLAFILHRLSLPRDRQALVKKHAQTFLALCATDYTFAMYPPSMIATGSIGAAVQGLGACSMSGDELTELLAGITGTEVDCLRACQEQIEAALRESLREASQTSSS

## Nc1nc(NC2CCN(Cc3ccncc3)CC2)sc1C(=O)c1c(F)cccc1F [Example M2, 1-[4-Amino-2-(1-pyridin-4-ylmethyl-piperidin-4-ylamino)-thiazol-5-yl]-1-(2,6-difluoro-phenyl)-methanone.]
CDK2/Cyclin A
  Ki: 433 nM
[1]
  Ki: 33.5 nM
HCT-116 cell line; first HCT-116 column (c4)
  IC50: 2100 nM
HCT-116 cell line; second HCT-116 column (c5)
  IC50: 5000 nM

## Nc1nc(NC2CCN(C(=O)C3Cc4ccccc43)CC2)sc1C(=O)c1c(F)cccc1F (stereo not drawn) [Example R94]
CDK2/Cyclin A; at 0.03 μM
  CDK2 % Inhibition at 0.03 μM: 10%
[1]; at 0.03 μM
  CDK4 % Inhibition at 0.03 μM: −5%
HCT-116 cell line; HCT-116 cells, at 0.1 μM
  HCT-116 % Inhibition at 0.1 μM: 0%
HCT-116 cell line; HCT-116 cells
  HCT-116 5 Inhibition at 0.25 μM: 42

## COc1cccc(NC(=O)N2CCC(Nc3nc(N)c(C(=O)c4c(F)cccc4F)s3)CC2)c1 [Example O15]
CDK2/Cyclin A; 0.03 μM compound
  CDK2 % Inhibition At 0.03 μM: 36%
[1]; 0.03 μM compound, Table 2
  CDK4 % Inhibition at 0.03 μM: 4%
HCT-116 cell line; HCT-116, Table 2
  HCT-116 % Inhibition at 0.25 μM: 13%

## Cc1ccc(C(=O)N2CCC(Nc3nc(N)c(C(=O)c4c(F)cccc4F)s3)CC2)cc1C [Example D15, {4-Amino-2-[1-(3,4-dimethyl-benzoyl)-piperidin-4-ylamino]-thiazol-5-yl}-(2,6-difluoro-phenyl)-methanone]
CDK2/Cyclin A
  Ki: 170 nM
[1]
  Ki: 27 nM
HCT-116 cell line; first HCT-116 column (c4)
  IC50: 50 nM
HCT-116 cell line; second HCT-116 column (c5)
  IC50: 170 nM

## Nc1nc(NC2CCN(S(=O)(=O)c3ccc([N+](=O)[O-])cc3)CC2)sc1C(=O)c1c(F)cccc1F [Example P19]
CDK2/Cyclin A; 0.03 μM compound, Table 3
  CDK2 % Inhibition at 0.03 μM: 63%
[1]; 0.03 μM compound, Table 3
  CDK4 % Inhibition at 0.03 μM: 73%
HCT-116 cell line; [2]
  HCT-116 % Inhibition at 0.1 μM: 19%
HCT-116 cell line; HCT-116, Table 3
  HCT-116 % Inhibition at 0.25 μM: 30%

## Nc1nc(NC2CCN(C(=O)Nc3ccccc3Oc3ccccc3)CC2)sc1C(=O)c1c(F)cccc1F [Example O82]
CDK2/Cyclin A; 0.03 μM compound
  CDK2 % Inhibition At 0.03 μM: 34%
[1]; 0.03 μM compound, Table 2
  CDK4 % Inhibition at 0.03 μM: 4%
HCT-116 cell line; HCT-116, Table 2
  HCT-116 % Inhibition at 0.25 μM: 34%

## Nc1nc(NC2CCN(C(=S)Oc3ccccc3)CC2)sc1C(=O)c1c(F)cccc1F [Example C6, 4-[4-Amino-5-(2,6-difluoro-benzoyl)-thiazol-2-ylamino]-piperidine-1-carbothioic Acid O-Phenyl Ester]
CDK2/Cyclin A
  Ki: 6.1 nM
[1]
  Ki: 7.9 nM
HCT-116 cell line; first HCT-116 column (c4)
  IC50: 220 nM
HCT-116 cell line; second HCT-116 column (c5)
  IC50: 900 nM

## Nc1nc(NC2CCN(S(=O)(=O)c3ccc(CCN4C[C@@H]5[C@@H](N)[C@@H]5C4)nc3)CC2)sc1C(=O)c1c(F)cccc1F [Example N10, [4-Amino-2-(1-{6-[2-(1α, 5β, 6γ-amino-3-aza-bicyclo[3.1.0]hex-3-yl)-ethyl]-pyridine-3-sulfonyl}-piperidin-4-ylamino)-thiazol-5-yl]-(2,6-difluoro-phenyl)-methanone Hydrochloride Salt.]
CDK2/Cyclin A
  Ki: 1.3 nM
[1]
  Ki: 0.21 nM
HCT-116 cell line; first HCT-116 column (c4)
  IC50: 380 nM
HCT-116 cell line; second HCT-116 column (c5)
  IC50: 3000 nM

## CN(C)CCSCCCS(=O)(=O)N1CCC(Nc2nc(N)c(C(=O)c3c(F)cccc3F)s2)CC1 [Example K24, 1-(4-Amino-2-{1-[3-(2-dimethylamino-ethylsulfanyl)-propane-1-sulfonyl]-piperidin-4-ylamino}-thiazol-5-yl)-1-(2,6-difluoro-phenyl)-methanone.]
CDK2/Cyclin A
  Ki: 5.9 nM
[1]
  Ki: 2 nM
HCT-116 cell line; first HCT-116 column (c4)
  IC50: > 50 nM
HCT-116 cell line; second HCT-116 column (c5)
  IC50: > 50 nM

## Nc1nc(NC2CCN(S(=O)(=O)c3ccc(Cl)c([N+](=O)[O-])c3)CC2)sc1C(=O)c1c(F)cccc1F [Example P15]
CDK2/Cyclin A; 0.03 μM compound, Table 3
  CDK2 % Inhibition at 0.03 μM: 50%
[1]; 0.03 μM compound, Table 3
  CDK4 % Inhibition at 0.03 μM: 65%
HCT-116 cell line; [2]
  HCT-116 % Inhibition at 0.1 μM: 30%
HCT-116 cell line; HCT-116, Table 3
  HCT-116 % Inhibition at 0.25 μM: 34%

## N#Cc1ccc(S(=O)(=O)N2CCC(Nc3nc(N)c(C(=O)c4c(F)cccc4F)s3)CC2)c(Cl)c1 [Example P71]
CDK2/Cyclin A; 0.03 μM compound, Table 3
  CDK2 % Inhibition at 0.03 μM: 57%
[1]; 0.03 μM compound, Table 3
  CDK4 % Inhibition at 0.03 μM: 52%
HCT-116 cell line; [2]
  HCT-116 % Inhibition at 0.1 μM: 13%
HCT-116 cell line; HCT-116, Table 3
  HCT-116 % Inhibition at 0.25 μM: 21%

## Cc1ccccc1NC(=O)N1CCC(Nc2nc(N)c(C(=O)c3c(F)cccc3F)s2)CC1 [Example O11]
CDK2/Cyclin A; 0.03 μM compound
  CDK2 % Inhibition At 0.03 μM: 35%
[1]; 0.03 μM compound, Table 2
  CDK4 % Inhibition at 0.03 μM: 6%
HCT-116 cell line; HCT-116, Table 2
  HCT-116 % Inhibition at 0.25 μM: 0%

## COCCOC(=O)N1CCC(Nc2nc(N)c(C(=O)c3c(F)cccc3F)s2)CC1 [Example R82]
CDK2/Cyclin A; at 0.03 μM
  CDK2 % Inhibition at 0.03 μM: −11%
[1]; at 0.03 μM
  CDK4 % Inhibition at 0.03 μM: 17%
HCT-116 cell line; HCT-116 cells, at 0.1 μM
  HCT-116 % Inhibition at 0.1 μM: 0%
HCT-116 cell line; HCT-116 cells
  HCT-116 5 Inhibition at 0.25 μM: 50

## Nc1nc(NC2CCN(S(=O)(=O)c3ccc(-c4ncc[nH]4)cc3)CC2)sc1C(=O)c1c(F)cccc1F [Example F34]
CDK2/Cyclin A
  Ki: < 1 nM
[1]
  Ki: 0.51 nM
HCT-116 cell line; first HCT-116 column (c4)
  IC50: 1500 nM
HCT-116 cell line; second HCT-116 column (c5)
  IC50: 2600 nM

## Nc1nc(NC2CCN(C(=O)Oc3ccc([N+](=O)[O-])cc3)CC2)sc1C(=O)c1c(F)cccc1F [Example Q84]
CDK2/Cyclin A; 0.03 μM compound, Table 4
  CDK2 % Inhibition at 0.03 μM: 63%
[1]; 0.03 μM compound, Table 4
  CDK4 % Inhibition at 0.03 μM: 88%
HCT-116 cell line; [3]
  HCT-116 % Inhibition at 0.1 μM: 3%
HCT-116 cell line; HCT-116, Table 4
  HCT-116 % Inhibition at 0.25 μM: 40%

## Nc1nc(NC2CCN(C(=O)c3ccc(F)cc3C(F)(F)F)CC2)sc1C(=O)c1c(F)cccc1F [Example R36]
CDK2/Cyclin A; at 0.03 μM
  CDK2 % Inhibition at 0.03 μM: 21%
[1]; at 0.03 μM
  CDK4 % Inhibition at 0.03 μM: 17%
HCT-116 cell line; HCT-116 cells, at 0.1 μM
  HCT-116 % Inhibition at 0.1 μM: 0%
HCT-116 cell line; HCT-116 cells
  HCT-116 5 Inhibition at 0.25 μM: 51

## CN(C)c1cccc2c(S(=O)(=O)N3CCC(Nc4nc(N)c(C(=O)c5c(F)cccc5F)s4)CC3)cccc12 [Example P2]
CDK2/Cyclin A; 0.03 μM compound, Table 3
  CDK2 % Inhibition at 0.03 μM: 43%
[1]; 0.03 μM compound, Table 3
  CDK4 % Inhibition at 0.03 μM: 69%
HCT-116 cell line; [2]
  HCT-116 % Inhibition at 0.1 μM: 15%
HCT-116 cell line; HCT-116, Table 3
  HCT-116 % Inhibition at 0.25 μM: 24%

## CCc1ccc(C(=O)N2CCC(Nc3nc(N)c(C(=O)c4c(F)cccc4F)s3)CC2)cc1 [Example R157]
CDK2/Cyclin A; at 0.03 μM
  CDK2 % Inhibition at 0.03 μM: 22%
[1]; at 0.03 μM
  CDK4 % Inhibition at 0.03 μM: 47%
HCT-116 cell line; HCT-116 cells, at 0.1 μM
  HCT-116 % Inhibition at 0.1 μM: 0%
HCT-116 cell line; HCT-116 cells
  HCT-116 5 Inhibition at 0.25 μM: 42

## Nc1nc(NC2CCN(S(=O)(=O)c3cccs3)CC2)sc1C(=O)c1c(F)cccc1F [Example F51, {4-Amino-2-[1-(thiophene-2-sulfonyl)-piperidin4-ylamino]-thiazol-5-yl}-(2,6-difluoro-phenyl)-methanone]
CDK2/Cyclin A
  Ki: 1.5 nM
[1]
  Ki: 5.5 nM
HCT-116 cell line; first HCT-116 column (c4)
  IC50: 300 nM
HCT-116 cell line; second HCT-116 column (c5)
  IC50: 630 nM

## Nc1nc(NC2CCN(C(=O)[C@@H]3C[C@H]3c3ccccc3)CC2)sc1C(=O)c1c(F)cccc1F (relative stereo) [Example Q55]
CDK2/Cyclin A; 0.03 μM compound, Table 4
  CDK2 % Inhibition at 0.03 μM: 29%
[1]; 0.03 μM compound, Table 4
  CDK4 % Inhibition at 0.03 μM: 43%
HCT-116 cell line; [3]
  HCT-116 % Inhibition at 0.1 μM: 10%
HCT-116 cell line; HCT-116, Table 4
  HCT-116 % Inhibition at 0.25 μM: 31%

## Cc1ccc(O)c(C(=O)N2CCC(Nc3nc(N)c(C(=O)c4c(F)cccc4F)s3)CC2)c1 [Example R122]
CDK2/Cyclin A; at 0.03 μM
  CDK2 % Inhibition at 0.03 μM: 61%
[1]; at 0.03 μM
  CDK4 % Inhibition at 0.03 μM: 67%
HCT-116 cell line; HCT-116 cells, at 0.1 μM
  HCT-116 % Inhibition at 0.1 μM: 0%
HCT-116 cell line; HCT-116 cells
  HCT-116 5 Inhibition at 0.25 μM: 48

## Nc1nc(NC2CCN(S(=O)(=O)CCCSc3ccccn3)CC2)sc1C(=O)c1c(F)cccc1F [Example K21, 1-(4-Amino-2-{1-[3-(pyridin-2-ylsulfanyl)-propane-1-sulfonyl]-piperidin-4-ylamino}-thiazol-5-yl)-1-(2,6-difluoro-phenyl)-methanone]
CDK2/Cyclin A
  Ki: 2.7 nM
[1]
  Ki: 4.4 nM
HCT-116 cell line; first HCT-116 column (c4)
  IC50: > 500 nM
HCT-116 cell line; second HCT-116 column (c5)
  IC50: > 500 nM

## Cc1cccc(C(=O)N2CCC(Nc3nc(N)c(C(=O)c4c(F)cccc4F)s3)CC2)c1C [Example R125]
CDK2/Cyclin A; at 0.03 μM
  CDK2 % Inhibition at 0.03 μM: 18%
[1]; at 0.03 μM
  CDK4 % Inhibition at 0.03 μM: 33%
HCT-116 cell line; HCT-116 cells, at 0.1 μM
  HCT-116 % Inhibition at 0.1 μM: 0%
HCT-116 cell line; HCT-116 cells
  HCT-116 5 Inhibition at 0.25 μM: 42

## CN1CCN(CCCS(=O)(=O)N2CCC(Nc3nc(N)c(C(=O)c4c(F)cccc4F)s3)CC2)CC1 [Example K16, 1-(4-Amino-2-{1-[3-(4-methylpiperazin-1-yl)propane-1-sulfonyl]-piperidin-4-ylamino}-thiazol-5-yl)-1-(2,6-difluoro-phenyl)-methanone.]
CDK2/Cyclin A
  Ki: 7.8 nM
[1]
  Ki: 2.8 nM
HCT-116 cell line; first HCT-116 column (c4)
  IC50: 1800 nM
HCT-116 cell line; second HCT-116 column (c5)
  IC50: 5000 nM

— patent US20050101595A1, “N-containing cycloalkyl-substituted amino-thiazole derivatives and pharmaceutical compositions for inhibiting cell proliferation and methods for their use” (PFIZER INC., priority 2003, published 2005)
